Laboratory results from the supplement of paper PMC4862054.

Tests used:
Assay in all cases: normalised response (% of control), CellTiter-Glo; higher = more viable cells (100 = DMSO, 0 = benzethonium chloride kill control)
Settings in all cases: incubation time: 72 h
CAL-120 = system: CAL-120
Outline: (§1)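 Every value is a normalised signal taken at one concentration of a dilution series. Compound was placed in 384-well plates at 5 concentrations in 10-fold steps over a compound-specific 10,000-fold range, and 20 µl of breast cancer cell suspension was seeded onto it. After 72 h, CellTox Green fluorescence (485/520 nm) was measured first and CellTiter-Glo luminescence second, following 10 min at room temperature. Each plate was scaled to 0.1 % DMSO (100) and a positive kill control (0).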

DU-4475 = system: DU-4475
Outline: as §1

HCC1143 = system: HCC1143
Outline: as §1

MDA-MB-453 = system: MDA-MB-453
Outline: as §1

BT-474 = system: BT-474
Outline: as §1

CAL-148 = system: CAL-148
Outline: as §1

MDA-MB-468 = system: MDA-MB-468
Outline: as §1

CAL-85-1 = system: CAL-85-1
Outline: as §1

SK-BR-3 = system: SK-BR-3
Outline: as §1

CAL-51 = system: CAL-51
Outline: as §1

HCC1599 = system: HCC1599
Outline: as §1

MDA-MB-231 = system: MDA-MB-231
Outline: as §1

MDA-MB-436 = system: MDA-MB-436
Outline: as §1

BT-549 = system: BT-549
Outline: as §1

HDQ-P1 = system: HDQ-P1
Outline: as §1

Hs578T = system: Hs578T
Outline: as §1

HCC1937 = system: HCC1937
Outline: as §1

MCF-10A = system: MCF-10A
Outline: as §1

MFM-223 = system: MFM-223
Outline: as §1

Row | Compound | normalised response (CAL-120) | normalised response (DU-4475) | normalised response (HCC1143) | normalised response (MDA-MB-453) | normalised response (BT-474) | normalised response (CAL-148) | normalised response (MDA-MB-468) | normalised response (CAL-85-1) | normalised response (SK-BR-3) | normalised response (CAL-51) | normalised response (HCC1599) | normalised response (MDA-MB-231) | normalised response (MDA-MB-436) | normalised response (BT-549) | normalised response (HDQ-P1) | normalised response (Hs578T) | normalised response (HCC1937) | normalised response (MCF-10A) | normalised response (MFM-223)
1 | COc1nc(N)nc2c1ncn2[C@@H]1O[C@H](CO)[C@@H](O)[C@@H]1O [Nelarabine] (10 nM) | 90.8% | 98% | 96.2% | 88.1% | 87.5% | 81.3% | 90.5% | 96.4% | 70.6% | 77.6% | 88.6% | 97.4% | 97.7% | 99.5% | 89.9% | 96.5% | 102% | 88.7% | 88%
2 | Cc1ccc(Nc2nccc(N(C)c3ccc4c(C)n(C)nc4c3)n2)cc1S(N)(=O)=O [Pazopanib] (1 nM) | 95.4% | 109% | 97.4% | 125% | 98.1% | 108% | 106% | 110% | 109% | 98.5% | 100% | 96.8% | 97.3% | 104% | 101% | 99.8% | 96.2% | 94.8% | 99.3%
3 | CS(=O)(=O)N1CCN(Cc2cc3nc(-c4cccc5[nH]ncc45)nc(N4CCOCC4)c3s2)CC1 [Pictilisib] (10 nM) | 91.4% | 102% | 99.8% | 101% | 98.3% | 105% | 101% | 103% | 105% | 110% | 102% | 94.2% | 98.9% | 95.7% | 95.3% | 96.3% | 99.7% | 102% | 96.7%
4 | O=C(NC[C@H](O)CO)c1ccncc1Nc1ccc(I)cc1F [Pimasertib] (1 nM) | 99.8% | 99.9% | 93.2% | 105% | 100% | 97.7% | 97.5% | 97.9% | 98.5% | 62.2% | 106% | 105% | 99.5% | 100% | 93.8% | 97.2% | 100% | 82.8% | 97.6%
5 | O=C(CCBr)N1CCN(C(=O)CCBr)CC1 [Pipobroman] (1 nM) | 99.4% | 106% | 99.4% | 98.1% | 96.6% | 111% | 105% | 103% | 115% | 106% | 105% | 97.8% | 91.7% | 105% | 104% | 102% | 104% | 103% | 99.1%
6 | O=C(CCBr)N1CCN(C(=O)CCBr)CC1 [Pipobroman] (10 nM) | 99.5% | 106% | 100% | 104% | 102% | 105% | 108% | 102% | 107% | 89.7% | 117% | 98.2% | 98.8% | 101% | 105% | 101% | 104% | 109% | 101%
7 | c1cc(CN2CCCNCCNCCCNCC2)ccc1CN1CCCNCCNCCCNCC1 [Plerixafor] (1 nM) | 102% | 91% | 98.7% | 87.1% | 95.8% | 98.5% | 97.3% | 92.3% | 81.3% | 82.4% | 105% | 96.9% | 94.3% | 105% | 103% | 98.2% | 95.9% | 81.4% | 85.5%
8 | C[C@]12C=CC(=O)C=C1CC[C@@H]1[C@@H]2[C@@H](O)C[C@@]2(C)[C@H]1CC[C@]2(O)C(=O)CO [Prednisolone] (1 nM) | 110% | 108% | 96.9% | 112% | 106% | 110% | 106% | 96.9% | 110% | 84.8% | 102% | 102% | 102% | 112% | 101% | 102% | 96.9% | 104% | 102%
9 | C[C@]12C=CC(=O)C=C1CC[C@@H]1[C@@H]2[C@@H](O)C[C@@]2(C)[C@H]1CC[C@]2(O)C(=O)CO [Prednisolone] (10 nM) | 103% | 106% | 100% | 106% | 112% | 113% | 105% | 102% | 112% | 99.4% | 97.6% | 108% | 95.9% | 99.8% | 100% | 101% | 100% | 112% | 104%
10 | Cn1cc(CNCC2CCN(c3ncc(C(=O)NO)cn3)CC2)c2ccccc21 [Quisinostat] (0.1 nM) | 103% | 103% | 105% | 109% | 104% | 109% | 109% | 107% | 108% | 84.2% | 92.9% | 106% | 101% | 99.8% | 100% | 96.5% | 99.6% | 109% | 104%
11 | Cn1cc(CNCC2CCN(c3ncc(C(=O)NO)cn3)CC2)c2ccccc21 [Quisinostat] (1 nM) | 96.8% | 102% | 103% | 105% | 107% | 110% | 97% | 97.7% | 102% | 121% | 110% | 101% | 104% | 97.8% | 94.3% | 96.8% | 97.1% | 107% | 104%
12 | CC(C)N(CCCNC(=O)Nc1ccc(C(C)(C)C)cc1)C[C@H]1O[C@@H](n2cc(Br)c3c(N)ncnc32)[C@H](O)[C@@H]1O [SGC0946] (1 nM) | 94.9% | 98.5% | 89.9% | 95.3% | 93.8% | 99.5% | 97.7% | 98.4% | 97.5% | 104% | 93.8% | 93.2% | 102% | 99.2% | 94.5% | 96% | 92.7% | 101% | 91.3%
13 | CC(C)N(CCCNC(=O)Nc1ccc(C(C)(C)C)cc1)C[C@H]1O[C@@H](n2cc(Br)c3c(N)ncnc32)[C@H](O)[C@@H]1O [SGC0946] (10 nM) | 92.9% | 93.6% | 99.9% | 89.4% | 98.8% | 91.2% | 86.9% | 94% | 105% | 108% | 93.8% | 97.5% | 92.3% | 93.1% | 97.2% | 98.1% | 89.6% | 97.4% | 96.6%
14 | CNC(=O)c1cc(Oc2ccc(NC(=O)Nc3ccc(Cl)c(C(F)(F)F)c3)cc2)ccn1 [Sorafenib] (0.1 nM) | 100% | 101% | 99.7% | 108% | 105% | 106% | 101% | 101% | 102% | 118% | 103% | 107% | 102% | 104% | 99.7% | 98.3% | 97.7% | 95.7% | 98.8%
15 | CCN(CC)CCNC(=O)c1c(C)[nH]c(/C=C2\C(=O)Nc3ccc(F)cc32)c1C [Sunitinib] (0.1 nM) | 105% | 96.1% | 103% | 106% | 104% | 108% | 103% | 99.9% | 114% | 81.7% | 94.7% | 106% | 94.9% | 100% | 98.5% | 93.5% | 95.8% | 99.3% | 103%
16 | CCN(CC)CCNC(=O)c1c(C)[nH]c(/C=C2\C(=O)Nc3ccc(F)cc32)c1C [Sunitinib] (1 nM) | 107% | 99.4% | 103% | 105% | 109% | 103% | 106% | 99.9% | 111% | 141% | 119% | 101% | 104% | 95.5% | 97.1% | 97.7% | 107% | 107% | 105%
17 | CC[C@@]1(O)C(=O)OCc2c1cc1n(c2=O)Cc2cc3c(CN(C)C)c(O)ccc3nc2-1 [Topotecan] (1 nM) | 92.5% | 95.3% | 92.8% | 103% | 93.2% | 97.6% | 94.7% | 95.6% | 99.2% | 68.1% | 95% | 97.9% | 99.3% | 97.3% | 99.7% | 105% | 97% | 97.3% | 93.7%
